Target: T1, androgen receptor (AR) (Homo sapiens, UniProt P10275, T878A)
T1 construct: endogenous full-length AR in LNCaP cells
T1 sequence (P10275 1-920 T878A): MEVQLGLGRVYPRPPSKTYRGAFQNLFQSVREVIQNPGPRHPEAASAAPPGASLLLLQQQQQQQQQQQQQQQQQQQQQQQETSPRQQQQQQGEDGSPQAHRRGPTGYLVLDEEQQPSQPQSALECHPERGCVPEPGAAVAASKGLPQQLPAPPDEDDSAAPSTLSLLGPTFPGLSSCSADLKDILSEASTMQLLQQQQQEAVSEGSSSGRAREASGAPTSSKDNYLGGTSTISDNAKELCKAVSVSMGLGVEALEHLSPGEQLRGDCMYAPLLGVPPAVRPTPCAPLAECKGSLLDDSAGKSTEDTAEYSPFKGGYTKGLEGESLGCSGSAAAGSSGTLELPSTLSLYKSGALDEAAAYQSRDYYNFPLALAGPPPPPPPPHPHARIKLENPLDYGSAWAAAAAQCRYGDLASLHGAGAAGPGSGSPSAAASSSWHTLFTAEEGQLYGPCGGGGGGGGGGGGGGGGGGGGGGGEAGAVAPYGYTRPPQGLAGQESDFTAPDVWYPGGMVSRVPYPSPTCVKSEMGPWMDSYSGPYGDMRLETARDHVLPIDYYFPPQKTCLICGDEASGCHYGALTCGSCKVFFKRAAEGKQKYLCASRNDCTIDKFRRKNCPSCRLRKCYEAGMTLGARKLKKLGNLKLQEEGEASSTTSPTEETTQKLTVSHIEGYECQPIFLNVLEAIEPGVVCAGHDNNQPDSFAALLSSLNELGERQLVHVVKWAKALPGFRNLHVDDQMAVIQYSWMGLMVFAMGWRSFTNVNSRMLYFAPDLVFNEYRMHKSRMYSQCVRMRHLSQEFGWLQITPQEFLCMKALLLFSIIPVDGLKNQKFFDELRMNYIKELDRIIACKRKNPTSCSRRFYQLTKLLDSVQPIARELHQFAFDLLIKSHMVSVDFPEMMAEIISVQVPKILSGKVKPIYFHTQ
Assay: androgen (R1881)-induced PSA([…].1kb)-luciferase reporter in LNCaP cells
Type: cell-based

- IC50: 1080 ± 550 nM
Compound: CC(C)(c1ccc(OC[C@H](O)CNS(C)(=O)=O)cc1)c1cc(Cl)c(OC[C@H](O)CCl)c(Cl)c1 [EPI-7170]
